8 compounds from patent publication US20240043448A1, “Small Molecule Inhibitors of KRAS G12C Mutant” (Merck Sharp & Dohme LLC, priority 2019, published 2024) can be followed below.

A word on the IC50: it is the midpoint of a concentration-inhibition curve.

Experiment [1] addresses Biotinylated KRAS G12C protein (Homo sapiens (Human), UniProt P01116, C118S/C51S/C80L/G12C). Description: SOS-catalyzed nucleotide exchange assay (TR-FRET). It is filed as biochemical. Conditions: in vitro apparent potency; preincubation time of 60 minutes prior to addition of SOS. The gist of the method: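 Biotinylated KRAS G12C preloaded with Bodipy-GDP and Tb-streptavidin, then incubated with compound (10-point, 3-fold series) for 60 min at RT. Exchange started with SOS and GTP for 60 min. TR-FRET 520/495 ratio normalised to DMSO and saturating-inhibitor controls; four-parameter fit.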
Background: In TR-FRET formats the signal depends on donor and acceptor labels being close together.

Another experiment has as its system phospho-ERK. Kind of experiment: Cellular phospho-ERK assay. It is filed as cell-based. Conditions: NCI-H358 cells, 2 hour incubation, ratio of p-Erk vs total Erk, read-out: IC50 (nM) pERK (Cell). The gist of the method:
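NCI-H358 cells seeded overnight, then exposed to compound dose-response titrations for 2 hours at 37° C. in RPMI. Lysates assayed by AlphaLISA SureFire Ultra multiplex for p-Erk and total Erk; ratio p-Erk/total Erk used as readout, IC50 from 4-parameter logistic fit.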

Read-outs that look alike come from different tables or passages of the source.

As for `C=CC(=O)N1C[C@H](C)N(c2nc(=O)n3c4nc(c(F)cc24)-c2c(ccc(F)c2F)OCC(F)(F)CCc2ncnc(C(C)C)c2-3)C[C@H]1C` [Example 58, 2-[(2S,5R)-2,5-dimethyl-4-(prop-2-enoyl)piperazin-1-yl]-12,12,17,18,21-pentafluoro-6-(propan-2-yl)-10,11,12,13-tetrahydro-4H-1,19-(ethanediylidene)dipyrimido [4,5-f:1′,6′-h][1,8,10] benzoxadiazacyclo-tridecin-4-one], the IC50 in experiment [1] is 0.74 nM; in the experiment with phospho-ERK (Homo sapiens, NCI-H358, 2 h), 14 nM.
As to `C=CC(=O)N1CCN(c2nc(=O)n3c4nc(c(F)cc24)-c2c(F)cccc2OCCCc2ccnc(C(C)C)c2-3)[C@@H](C)C1` (single isomer, unassigned) [Example 10a], the 50% inhibitory concentration (IC50) stood at 4.3 nM in experiment [1] and 6.7 nM with phospho-ERK.
For the compound `C=CC(=O)N1C[C@H](C)N(c2nc(=O)n3c4nc(c(F)cc24)-c2c(F)ccc(F)c2OCC2(CCc4ccnc(C(C)C)c4-3)CC2)C[C@H]1C` [Example 61, 2′-[(2S,5R)-2,5-dimethyl-4-(prop-2-enoyl)piperazin-1-yl]-15′,18′,21′-trifluoro-6′-(propan-2-yl)-10′,11′-dihydro-4′H,13′H-spiro[cyclopropane-1,12′-[14]oxa [3,5,7,20]tetraaza[1,19] (ethanediylidene)pyrido[4,3-f]pyrimido[1,6-h][1,8,10]benzoxadiazacyclotri-decin]-4′-one], the IC50 in experiment [1] is 2.3 nM; with phospho-ERK (Homo sapiens, NCI-H358, 2 h), 43 nM.
In the case of `C=CC(=O)N1C[C@H](C)N(c2nc(=O)n3c4nc(c(F)cc24)-c2c(F)cccc2OC(C)CCc2ccnc(C(C)C)c2-3)C[C@H]1C` (single isomer, unassigned) [Example 81], the concentration for half-maximal inhibition (IC50) was 2.9 nM in experiment [1] and 21 nM in the experiment on phospho-ERK (Homo sapiens, NCI-H358, 2 h).
For the compound `C=CC(=O)N1C[C@H](C)N(c2nc(=O)n3c4nc(c(F)cc24)-c2c(F)cccc2OCC(F)(F)CCc2ccnc(C(C)C)c2-3)C[C@H]1C` [Example 52, (5aRa,18aRa)-2-[(2S,5R)-2,5-dimethyl-4-(prop-2-enoyl)piperazin-1-yl]-12,12,18,21-tetrafluoro-6-(propan-2-yl)-10,11,12,13-tetrahydro-4H-1,19-(ethanediylidene)pyrido[4,3-f]pyrimido[1,6-h][1,8,10]benzoxadiazacyclotridecin-4-one], the IC50 came out at 1.8 nM in experiment [1] and 9.3 nM with phospho-ERK.
Consider `C=CC(=O)N1C[C@H](C)N(c2nc(=O)n3c4nc(c(F)cc24)-c2c(F)ccc(F)c2OCCCc2ccnc(C(C)C)c2-3)C[C@H]1C` [Example 95, 2-[(2S,5R)-2,5-dimethyl-4-(prop-2-enoyl)piperazin-1-yl]-14,17,20-trifluoro-6-(propan-2-yl)-11,12-dihydro-4H,10H-1,18-(ethanediylidene)pyrido[4,3-e]pyrimido[1,6-g][1,7,9]benzoxadiazacyclododecin-4-one], for which the IC50 was 2.5 nM in experiment [1] and 15 nM in the experiment with phospho-ERK (Homo sapiens, NCI-H358, 2 h).
Regarding `C=CC(=O)N1C[C@H](C)N(c2nc(=O)n3c4nc(c(F)cc24)-c2c(F)cccc2OCCOc2c(Cl)cnc(C(C)C)c2-3)C[C@H]1C` [Example 70, 9-chloro-2-[(2S,5R)-2,5-dimethyl-4-(prop-2-enoyl)piperazin-1-yl]-17,20-difluoro-6-(propan-2-yl)-11,12-dihydro-4H-1,18-(ethanediylidene)pyrido[4,3-e]pyrimido[1,6-g][1,4,7,9]benzodioxadiazacyclododecin-4-one], the results for the IC50 (in experiment [1]; in the experiment on phospho-ERK) were 1.8 nM and 19 nM, respectively.
In the same order, the values of “17,20-difluoro-12-hydroxy-2-[(2S)-2-methyl-4-(prop-2-enoyl)piperazin-1-yl]-6-(propan-2-yl)-10,11,12,13-tetrahydro-4H-1,18-ethenopyrido[3,4-e]pyrimido[6,1-c][2,4]benzodiazacyclododecin-4-one [Example 118-1]” are 192 nM and 651 nM.
